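1) Cells in 96-well plates. 2) Compound, 48 h, 5 concentrations. 3) Linear interpolation between surrounding doses. 4) Unreached endpoint = highest concentration. The concentration for 50% growth inhibition is given as GI50.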 Calls of active or inactive are those of the source. Rule as the data show it: active = GI50 up to about 1.1 µM and inactive = higher.
What was measured:
Test in all cases: inhibition of tumour cell growth, NCI panel, 48 h
UACC-257 = tested on: UACC-257
RXF 393 = tested on: RXF 393
SN12C = tested on: SN12C
DLD-1 = tested on: DLD-1
U-251 = tested on: U-251
A549 = tested on: A549
KM12 = tested on: KM12
LOX IMVI = tested on: LOX IMVI
SR = tested on: SR
SNB-19 = tested on: SNB-19
SK-MEL-5 = tested on: SK-MEL-5
OVCAR-3 = tested on: OVCAR-3
UACC-62 = tested on: UACC-62
EKVX = tested on: EKVX
K562 = tested on: K562
UO-31 = tested on: UO-31
DU-145 = tested on: DU-145
MDA-MB-231 = tested on: MDA-MB-231
MCF7 = tested on: MCF7
T47D = tested on: T47D

SMILES | GI50 (UACC-257) | GI50 (RXF 393) | GI50 (SN12C) | GI50 (DLD-1) | GI50 (U-251) | GI50 (A549) | GI50 (KM12) | GI50 (LOX IMVI) | GI50 (SR) | GI50 (SNB-19) | GI50 (SK-MEL-5) | GI50 (OVCAR-3) | GI50 (UACC-62) | GI50 (EKVX) | GI50 (K562) | GI50 (UO-31) | GI50 (DU-145) | GI50 (MDA-MB-231) | GI50 (MCF7) | GI50 (T47D)
Nc1ncnc2c1ncn2[C@]1(CO)C=C(CO)C(O)C1O (stereo partly drawn) | > 100 µM (inactive) | > 100 µM (inactive) | > 100 µM (inactive) | > 100 µM (inactive) | > 100 µM (inactive) | > 100 µM (inactive) | > 100 µM (inactive) | > 100 µM (inactive) | > 100 µM (inactive) | > 100 µM (inactive) | > 100 µM (inactive) |  |  |  |  |  |  |  |  | 
CC1(C)OC2CC3COC(=O)C3CC2O1 (stereo not drawn) | > 100 µM (inactive) |  | > 100 µM (inactive) | > 100 µM (inactive) | > 100 µM (inactive) | > 100 µM (inactive) | > 100 µM (inactive) | > 100 µM (inactive) | > 100 µM (inactive) |  | > 100 µM (inactive) | > 100 µM (inactive) | > 100 µM (inactive) | > 100 µM (inactive) | > 100 µM (inactive) | > 100 µM (inactive) |  |  |  | 
COc1cc(C(C)O)c[n+](CCC2CNc3ccccc32)c1 (stereo not drawn) | > 100 µM (inactive) |  | > 100 µM (inactive) | > 100 µM (inactive) | > 100 µM (inactive) | > 100 µM (inactive) | > 100 µM (inactive) | > 100 µM (inactive) | > 100 µM (inactive) | > 100 µM (inactive) | > 100 µM (inactive) | 26.1 µM (inactive) | > 100 µM (inactive) | 33 µM (inactive) | > 100 µM (inactive) | > 100 µM (inactive) |  |  |  | 
CC[C@@]1(O)C(=O)OCc2c1cc1n(c2=O)Cc2cc3c(N)cccc3nc2-1 [9-AMINOCAMPTOTHECIN] | 0.0571 µM (active) | 0.0408 µM (active) | < 0.01 µM (active) | 0.566 µM (active) | 0.0108 µM (active) | 0.0188 µM (active) | 0.23 µM (active) | < 0.01 µM (active) | < 0.215 µM (active) | < 0.01 µM (active) | 0.0118 µM (active) | 0.207 µM (active) | < 0.0102 µM (active) | 0.34 µM (active) | 0.112 µM (active) | 0.0175 µM (active) | < 0.01 µM (active) | 0.272 µM (active) | < 0.01 µM (active) | 
C=C(Br)C(C)(Cl)CCC(Br)C(C)(C)Br (stereo not drawn) | 78.7 µM (inactive) | 22.4 µM (inactive) | > 100 µM (inactive) | 91.8 µM (inactive) | 88.9 µM (inactive) | 40.9 µM (inactive) | 99.1 µM (inactive) | 16.6 µM (inactive) | 22.1 µM (inactive) |  | 65.3 µM (inactive) |  | 47.6 µM (inactive) |  | 27.4 µM (inactive) | 84.3 µM (inactive) |  |  |  | 
CCOC(=N)/C(=C1\OC(=N)C(c2ccc(Cl)cc2)=C1O)c1ccc(Cl)cc1 | 17.2 µM (inactive) | 13.8 µM (inactive) | 14.8 µM (inactive) | 15.2 µM (inactive) | 16.8 µM (inactive) | 23.4 µM (inactive) | 18.4 µM (inactive) | 13.9 µM (inactive) | 16.7 µM (inactive) | 22.7 µM (inactive) |  | 18 µM (inactive) | 15.5 µM (inactive) | 18.1 µM (inactive) | 19.8 µM (inactive) | 17.5 µM (inactive) |  |  |  | 
CC(=O)O/N=C/c1ncccc1CO | > 100 µM (inactive) | > 100 µM (inactive) | > 100 µM (inactive) | > 100 µM (inactive) | > 100 µM (inactive) | > 100 µM (inactive) | > 100 µM (inactive) | > 100 µM (inactive) | > 100 µM (inactive) | > 100 µM (inactive) | > 100 µM (inactive) | > 100 µM (inactive) | > 100 µM (inactive) | > 100 µM (inactive) | > 100 µM (inactive) | > 100 µM (inactive) |  |  |  | 
COc1ccc2c(-c3cc4ccccc4o3)cc(=O)oc2c1 | 54.8 µM (inactive) | 18 µM (inactive) | 68.9 µM (inactive) | > 100 µM (inactive) | 24.3 µM (inactive) | 44 µM (inactive) | 98.2 µM (inactive) | 60.7 µM (inactive) | > 100 µM (inactive) | 26.1 µM (inactive) | 40.1 µM (inactive) | 16.6 µM (inactive) | 67.5 µM (inactive) | 48.6 µM (inactive) | > 100 µM (inactive) | 15 µM (inactive) | > 74.8 µM (inactive) | 47.8 µM (inactive) | > 67.3 µM (inactive) | > 55 µM (inactive)
CC(C)c1c2[nH]c3ccccc3c2c(C(C)C)c2[nH]c3ccccc3c12 | > 100 µM (inactive) | > 100 µM (inactive) | 35.6 µM (inactive) | > 78.7 µM (inactive) | > 100 µM (inactive) | > 100 µM (inactive) | 29.9 µM (inactive) | 35.5 µM (inactive) | 24.7 µM (inactive) | > 100 µM (inactive) | > 100 µM (inactive) | > 54.1 µM (inactive) | > 100 µM (inactive) | > 100 µM (inactive) | 7.78 µM (inactive) | > 100 µM (inactive) |  |  |  | 
CN(C)C(=O)c1ccc([N+](=O)[O-])cc1 | > 100 µM (inactive) | > 100 µM (inactive) | > 100 µM (inactive) | > 100 µM (inactive) | > 100 µM (inactive) | > 100 µM (inactive) | > 100 µM (inactive) | > 100 µM (inactive) | > 100 µM (inactive) | > 100 µM (inactive) | > 100 µM (inactive) | > 100 µM (inactive) | > 100 µM (inactive) | > 100 µM (inactive) | > 100 µM (inactive) | > 100 µM (inactive) |  |  |  | 
Nc1nc2c3c(ncn3CC(O)CO2)n1 (stereo not drawn) | > 100 µM (inactive) | > 100 µM (inactive) | > 100 µM (inactive) | > 100 µM (inactive) | > 100 µM (inactive) | > 100 µM (inactive) | > 100 µM (inactive) | > 100 µM (inactive) | > 100 µM (inactive) | > 100 µM (inactive) | > 100 µM (inactive) | > 100 µM (inactive) | > 100 µM (inactive) |  | > 100 µM (inactive) | > 100 µM (inactive) |  |  |  | 
CCOC(=O)[C@H]1Nc2ccc(Cl)cc2[C@H]2c3ccccc3O[C@H]21 | 36.1 µM (inactive) | > 100 µM (inactive) | > 100 µM (inactive) | 63 µM (inactive) | > 100 µM (inactive) | 79.4 µM (inactive) | 93.5 µM (inactive) | > 100 µM (inactive) | 94.8 µM (inactive) | > 100 µM (inactive) | 64.7 µM (inactive) | 80.4 µM (inactive) | 41.8 µM (inactive) | > 100 µM (inactive) | 56.5 µM (inactive) | > 100 µM (inactive) |  |  |  | 
O=C(C[n+]1ccccc1)N/N=C(/CCC(=O)N(Cc1ccccc1)Cc1ccccc1)CC(=O)c1ccccc1 | > 100 µM (inactive) | > 100 µM (inactive) | > 100 µM (inactive) | > 100 µM (inactive) | > 100 µM (inactive) | > 100 µM (inactive) | > 100 µM (inactive) | > 100 µM (inactive) | > 100 µM (inactive) | > 100 µM (inactive) | > 100 µM (inactive) | > 100 µM (inactive) | > 100 µM (inactive) | > 100 µM (inactive) | > 100 µM (inactive) | > 100 µM (inactive) |  |  |  | 
O/N=C1/CCC/C1=C\c1ccccc1 | > 100 µM (inactive) | 96.6 µM (inactive) | > 100 µM (inactive) | > 100 µM (inactive) | > 100 µM (inactive) | > 100 µM (inactive) | > 100 µM (inactive) | > 100 µM (inactive) | 12.4 µM (inactive) | > 100 µM (inactive) | > 100 µM (inactive) | > 100 µM (inactive) | > 100 µM (inactive) | 21.9 µM (inactive) | 74.1 µM (inactive) | > 100 µM (inactive) |  |  |  | 

— ChEMBL document CHEMBL1201862, “PubChem BioAssay data set” (2004)
